Data as given in US6962912B2, “Substituted pyrazolo[4,3-e]diazepines, pharmaceutical compositions containing them, use as medicinal products and processes for preparing them” (Warner-Lambert LLC, priority 2000, dated 2005).

Tests used:
[1] = target: PDE4; experiment: Inhibition of PDE4 (cytosolic enzyme preparation from U937 line), compared with rolipram; format: biochemical, human; details: PDE4 enzyme preparation obtained from the U937 line
[2] = system: production of TNFα; experiment: in vivo TNFα model in Wistar rats (LPS-induced); details: oral administration 30 min before i.p. LPS; plasma 90 min after LPS; male Wistar rats
Text: TNFα is a cytokine which plays a central role in the mechanisms of inflammation. Its production can be induced by an injection of lipopolysaccharide (LPS). It has been shown that the increase in intracellular cAMP, produced in particular by PDE4 inhibitors, decreases the production of TNFα in in vitro and in vivo models. It is thus a matter here of quantifying in vivo the anti-inflammatory potential of the compounds of the invention, administered orally (p.o.) by measuring the inhibition of the production of TNFα in the plasma of rats, these rats having received an intraperitoneal (i.p.) injection of lipopolysaccharide (LPS). The treatment with the compounds of the invention or the vehicle are [sic] administered orally to male Wistar rats, 30 min before the injection of LPS. The rats are sacrificed 90 min after the stimulation with LPS, the blood is collected onto EDTA and the TNFα concentration is measured in each plasma sample. […] References • Chen, Y. L., Le Vraux, V., Giroud, J. P. and Chauvelot-Moachon L. (1994). Anti-tumor necrosis factor properties of non-peptide drugs in acute-phase responses. […] Int. J. Immunopharmacol., 16 (10), 805-816. Model of Eosinophilia in Rats

Structure (SMILES)	melting point	IC50 [1]	inhibition of the production of TNFα in the plasma of rats [2]
CCn1nc(C)c2c1C(=S)NCC(c1ccccc1)=N2 [Example 17, 1-Ethyl-3-methyl-5-phenyl-6,7-dihydro-1H-pyrazolo[4,3-e][1,4]diazepin-8-thione]	203.5 °C	5.9 nM	excellent activity
CCn1nc(C(C)(C)C)c2c1C(=O)NCC(c1ccccc1)=N2 [Example 21, 3-tert-Butyl-1-ethyl-5-phenyl-6,7-dihydro-1H-pyrazolo[4,3-e][1,4]diazepin-8-one]	160 °C	2.6 nM	excellent activity
CCn1nc(C)c2c1C(=O)NCC(c1ccc(C)cc1)=N2 [Example 23, 1-Ethyl-3-methyl-5-p-tolyl-6,7-dihydro-1H-pyrazolo[4,3-e][1,4]diazepin-8-one]	185 °C	42 nM	excellent activity
CCn1nc(C)c2c1C(=O)NCC(c1cccc(N)c1)=N2 [Example 24, 5-(3-Aminophenyl)-1-ethyl-3-methyl-6,7-dihydro-1H-pyrazolo[4,3-e][1,4]diazepin-8-one]	80 °C	78 nM	excellent activity
CCn1nc(C(C)(C)C)c2c1C(=S)NCC(c1ccccc1)=N2 [Example 25, 3-tert-Butyl-1-ethyl-5-phenyl-6,7-dihydro-1H-pyrazolo[4,3-e][1,4]diazepin-8-thione]	230 °C	2.4 nM	excellent activity
CCn1nc(C(C)(C)C)c2c1C(=O)NCC(c1ccc(N)cc1)=N2 [Example 26, 5-(4-Aminophenyl)-3-tert-butyl-1-ethyl-6,7-dihydro-1H-pyrazolo[4,3-e][1,4]diazepin-8-one]	189 °C	5.6 nM	excellent activity
CCn1nc(C)c2c1C(=O)NCC(c1ccc(O)cc1)=N2 [Example 28, 1-Ethyl-5-(4-hydroxyphenyl)-3-methyl-6,7-dihydro-1H-pyrazolo[4,3-e][1,4]diazepin-8-one]	250 °C	90 nM	excellent activity
CCn1nc(C)c2c1C(=O)NCC(C1CCCCC1)=N2 [Example 31, 5-Cyclohexyl-1-ethyl-3-methyl-6,7-dihydro-1H-pyrazolo[4,3-e][1,4]diazepin-8-one]	50 °C	190 nM	excellent activity
CCn1nc(C)c2c1C(=O)NCC(c1ccncc1)=N2 [Example 32, 1-Ethyl-3-methyl-5-pyrid-4-yl-6,7-dihydro-1H-pyrazolo[4,3-e][1,4]diazepin-8-one]	148 °C	130 nM	excellent activity
CCCCc1nn(CC)c2c1N=C(c1ccccc1)CNC2=O [Example 34, 3-Butyl-1-ethyl-5-phenyl-6,7-dihydro-1H-pyrazolo[4,3-e][1,4]diazepin-8-one]	105.4 °C	4.7 nM	excellent activity
CCn1nc(C)c2c1C(=NC#N)NCC(c1ccccc1)=N2 [Example 55, 1-Ethyl-3-methyl-5-phenyl-6,7-dihydro-1H-pyrazolo[4,3-e][1,4]diazepin-8-ylidenecyanamide]	280 °C	1.7 nM	excellent activity
CCn1nc(C2CCCCC2)c2c1C(=O)NCC(c1ccncc1)=N2 [Example 73, 3-Cyclohexyl-1-ethyl-5-pyrid-4-yl-6,7-dihydro-1H-pyrazolo-[4,3-e][1,4]diazepin-8-one]	126 to 127 °C	0.73 nM	excellent activity
